Reference: BigSolDB 2.1

COc1ccc2c(c1)c(CC(=O)O)c(C)n2C(=O)c1ccc(Cl)cc1
solubility (mole fraction)
Settings | 293.15 K | 298.15 K | 303.15 K | 308.15 K | 313.15 K
in 1,4-dioxane | 0.0249 | 0.029 | 0.0343 | 0.0416 | 0.0477
in water | 7.81e-07 | 9.32e-07 | 1.1e-06 | 1.27e-06 | 1.52e-06
